Counter-ions that a name gives are not always drawn.
Tested on: Aedes aegypti
Assay: Direct spray treatment (pump-sprayer), knock down and/or mortality
Format: in vivo
Procedure: The efficacy of a non-VOC solvent formulation of the invention was evaluated using a pump-sprayer against Culex quinquefasciatus and Aedes aegypti. The non-VOC solvent formulation of the invention comprising acetyl tributyl citrate (Formulation 1) was applied at a concentration of either 15.75 mg/ml or 31.5 mg/ml from a distance of approximately 15 cm. Controls were sprayed with water. The experiment was replicated five times and ten insects were sprayed per replicate.
Percentage knock-down and/or mortality was determined at three time points: 30 minutes following treatment; 1 hour following treatment; and 24 hours following treatment. The findings are presented below in Tables 4 and 5.
Further studies were conducted using acetyl tributyl citrate as described in Table 6.

Measured: % knock down and/or mortality of Aedes aegypti (out of 10 per replicate) after direct spray treatment

CCCCOC(=O)CC(CC(=O)OCCCC)(OC(C)=O)C(=O)OCCCC [Citroflex A-4, acetyl tributyl citrate]
100%: Many spray pushes pure Citroflex A4 (1 ml), 1 hour | Many spray pushes pure Citroflex A4 (1 ml), 24 hour mortality | One spray push Citroflex 1:1 with tap water, 1 hour | One spray push Citroflex 1:1 with tap water, 24 hour mortality | One spray push pure Citroflex A4 (1 ml), 1 hour | One spray push pure Citroflex A4 (1 ml), 24 hour mortality

— patent US10785976B2, “Methods and compositions for environmentally friendly pest control” (BAYER CROPSCIENCE LP, priority 2016, dated 2020)
